Measurements from paper PMC7845594, “Novel Immune Modulators Enhance Caenorhabditis elegans Resistance to Multiple Pathogens” (mSphere, 2021).

System: C. elegans transcriptome
Test: Transcriptome profiling (Affymetrix microarrays), differentially expressed genes
Format: in vivo, Caenorhabditis elegans
Conditions: downregulated genes
Procedure, shortened: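 Wild-type young-adult C. elegans (~6,000 per condition, triplicate) were exposed to each drug at 100 µM or to DMSO for 8 h without pathogen. TRIzol/RNeasy RNA was profiled on Affymetrix arrays. Fold changes were normalized to each gene's mean across conditions and clustered by Euclidean distance with average linkage.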

O=c1cc(CNc2ccc(Br)cc2)nc2sccn12 [LK56]
Fold Change (Gene F37C12.7, Affy_ID 174751_at): 0.2156
Fold Change (Gene R11.4, Affy_ID 177194_at): 0.488
Fold Change (Gene Y92C3B.2, Affy_ID 175744_s_at): 0.43
